Values of other authors as cited in publication PMC5014611 (Bioorganic & medicinal chemistry, 2016).

Target: T1, human GIVA cPLA2 (Homo sapiens, UniProt P47712)
T1 sequence (P47712 1-749): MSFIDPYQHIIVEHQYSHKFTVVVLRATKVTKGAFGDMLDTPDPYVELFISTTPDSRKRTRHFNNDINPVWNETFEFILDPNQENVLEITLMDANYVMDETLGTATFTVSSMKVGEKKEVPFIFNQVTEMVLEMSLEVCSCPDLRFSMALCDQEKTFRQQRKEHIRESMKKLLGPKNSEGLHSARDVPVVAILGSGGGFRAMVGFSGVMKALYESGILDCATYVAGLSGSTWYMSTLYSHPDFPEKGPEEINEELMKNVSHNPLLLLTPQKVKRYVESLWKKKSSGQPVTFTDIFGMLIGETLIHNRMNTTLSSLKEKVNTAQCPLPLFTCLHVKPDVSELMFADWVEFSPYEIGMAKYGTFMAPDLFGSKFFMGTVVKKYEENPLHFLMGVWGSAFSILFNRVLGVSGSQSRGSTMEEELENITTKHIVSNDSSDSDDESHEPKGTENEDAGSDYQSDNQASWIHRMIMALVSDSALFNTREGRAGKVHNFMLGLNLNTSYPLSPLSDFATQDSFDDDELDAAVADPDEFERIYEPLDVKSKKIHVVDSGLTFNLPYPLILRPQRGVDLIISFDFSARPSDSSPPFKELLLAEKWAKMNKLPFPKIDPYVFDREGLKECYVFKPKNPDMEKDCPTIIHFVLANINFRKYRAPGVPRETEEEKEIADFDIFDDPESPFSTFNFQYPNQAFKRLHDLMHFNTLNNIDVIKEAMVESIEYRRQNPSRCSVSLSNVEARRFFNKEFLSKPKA
Settings: commercially available inhibitor

In the case of `CCCCC/C=C\C/C=C\C/C=C\C/C=C\CCCC(=O)C(F)(F)F` [AATFMK, arachidonoyl trifluoromethyl ketone], the “GIVA cPLA2 XI(50)” value is listed as 0.036 mole fraction.
